According to US3953478A, “Tetrahydrofuranyl bromoacetates biocides” (Stauffer Chemical Company, priority 1975, dated 1976):
In brackets after ≈: the same amount, converted by molar mass.

Tests used:
Format in all cases: cell-based
Staphylococcus aureus = assay: Staphylococcus Aureus Use Dilution Test; conditions: Tryptic Soy Broth, 24 hours at 37°C, minimum concentration in which no growth occurs, read-out: Minimum Inhibitory Concentration
Procedure: This test measures the bacteriostatic effectiveness of a particular test compound against Staphylococcus aureus. Tryptic Soy Broth is dispensed aseptically into sterile 13 × 100 mm clear glass culture tubes. The first tube receives 3.6 ml of medium and tubes 2 through 10 receive 2.0 ml of medium. The test compound is dissolved in acetone to give 10 ml of a solution of 0.10% of the test compound. Using a sterile syringe, 0.4 ml of the test compound solution is placed in the first tube containing the 3.6 ml of sterile broth and mixed thoroughly. This operation is continued through to the tenth tube. From the tenth tube, 2.0 ml of solution is removed and discarded. Each tube is then inoculated with 0.1 ml of a 24-hour culture of Staphylococcus aureus in Tryptic Soy Broth, and the mixture is mixed thoroughly using a Vortex mixer. A control is also set up to be sure that the inoculum is viable using a tube of sterile broth containing no added toxicant. The tubes are incubated for 24 hours at 37°C. The tubes are then examined to determine growth of the organism in the culture tubes. The minimum concentration in which no growth of the organism occurs is recorded. The following table gives the minimum inhibitory concentration necessary to control the organism: […]

Pseudomonas fluorescens = assay: In Vitro Agar Screening Test; conditions: nutrient agar, 37°C, levels 1, 5, 10, 50 μg/ml, read-out: Minimum Inhibitory Concentration
Procedure: (§1) This test measures the bactericidal, fungicidal and algaecidal properties of a compound when in contact with growing bacteria, fungi or algae in an artificial medium. The test is conducted by adding 20 ml portions of a suitable warm sterile agar solution into 20 × 100 mm Petri dishes at levels of 1, 5, 10 and 50 μg/ml and mixed with the warm mobile agar solution. The treated agar mixture is then allowed to come to room temperature and solidify. Cells of the chosen organism are streaked on the surface of the solidified agar and are then incubated for such lengths of time that untreated samples containing no toxicant show luxurious growth typical of the particular organism. This time varies from 24 hours to 1 week depending on the particular organism. The fungi are incubated at 30°C and the bacteria are incubated at 37°C. The algae are incubated at room temperature under artificial light. Nutrient agar is used as the medium in this test for the bacteria. Potato dextrose agar is used as the medium for the fungi with the exception of Trichophyton mentagrophytes for which Emmons agar is used. A modified Jack Meyers agar is used for the growth of the algae.
(§2) The extent of growth is noted at the end of the incubation period.

Enterobacter aerogenes = assay: In Vitro Agar Screening Test; conditions: Klebsiella aerogenes, nutrient agar, 37°C, levels 1, 5, 10, 50 μg/ml, read-out: Minimum Inhibitory Concentration
Procedure: as §1, §2

Bacillus cereus = assay: In Vitro Agar Screening Test; conditions: nutrient agar, 37°C, levels 1, 5, 10, 50 μg/ml, read-out: Minimum Inhibitory Concentration
Procedure: as §1, §2

Euglena gracilis = assay: In Vitro Agar Screening Test; conditions: modified Jack Meyers agar, room temperature, artificial light, levels 1, 5, 10, 50 μg/ml, read-out: Minimum Inhibitory Concentration
Procedure: as §1, §2

Pseudomonas aeruginosa = assay: In Vitro Agar Screening Test; conditions: nutrient agar, 37°C, levels 1, 5, 10, 50 μg/ml, read-out: Minimum Inhibitory Concentration
Procedure: as §1, §2

Trichoderma sp. = assay: In Vitro Agar Screening Test; conditions: potato dextrose agar, 30°C, levels 1, 5, 10, 50 μg/ml, read-out: Minimum Inhibitory Concentration
Procedure: as §1, §2

Scenedesmus obliquus = assay: In Vitro Agar Screening Test; conditions: Tetradesmus obliquus, modified Jack Meyers agar, room temperature, artificial light, levels 1, 5, 10, 50 μg/ml, read-out: Minimum Inhibitory Concentration
Procedure: as §1, §2

[1] = test system: Trichophyton mentagrophytes; assay: In Vitro Agar Screening Test; conditions: Emmons agar, 30°C, levels 1, 5, 10, 50 μg/ml, read-out: Minimum Inhibitory Concentration
Procedure: as §1, §2

Chlorella pyrenoidosa = assay: In Vitro Agar Screening Test; conditions: Auxenochlorella pyrenoidosa, modified Jack Meyers agar, room temperature, artificial light, levels 1, 5, 10, 50 μg/ml, read-out: Minimum Inhibitory Concentration
Procedure: as §1, §2

Aspergillus fumigatus = assay: In Vitro Agar Screening Test; conditions: potato dextrose agar, 30°C, levels 1, 5, 10, 50 μg/ml, read-out: Minimum Inhibitory Concentration
Procedure: as §1, §2

Aspergillus oryzae = assay: In Vitro Agar Screening Test; conditions: potato dextrose agar, 30°C, levels 1, 5, 10, 50 μg/ml, read-out: Minimum Inhibitory Concentration
Procedure: as §1, §2

Pencillium expansum = assay: In Vitro Agar Screening Test; conditions: potato dextrose agar, 30°C, levels 1, 5, 10, 50 μg/ml, read-out: Minimum Inhibitory Concentration
Procedure: as §1, §2

Pencillium ochra-chloron = assay: In Vitro Agar Screening Test; conditions: potato dextrose agar, 30°C, levels 1, 5, 10, 50 μg/ml, read-out: Minimum Inhibitory Concentration
Procedure: as §1, §2

Escherichia coli = assay: In Vitro Agar Screening Test; conditions: nutrient agar, 37°C, levels 1, 5, 10, 50 μg/ml, read-out: Minimum Inhibitory Concentration
Procedure: as §1, §2

Aspergillus niger = assay: In Vitro Agar Screening Test; conditions: potato dextrose agar, 30°C, levels 1, 5, 10, 50 μg/ml, read-out: Minimum Inhibitory Concentration
Procedure: as §1, §2

O=C(CBr)OC1CCOC1 (stereo not shown) [Compound No. 1, 3-bromoacetoxy tetrahydrofuran]
MIC (Staphylococcus aureus): 12.5 µg/mL (≈ 59.8 µM) | MIC (Pseudomonas fluorescens): > 50 µg/mL | MIC (Enterobacter aerogenes): 50 µg/mL (≈ 239 µM) | MIC (Bacillus cereus): 50 µg/mL (≈ 239 µM) | MIC (Euglena gracilis): 5 µg/mL (≈ 23.9 µM) | MIC (Pseudomonas aeruginosa): > 50 µg/mL | MIC (Trichoderma sp.): 50 µg/mL (≈ 239 µM) | MIC (Scenedesmus obliquus): 1 µg/mL (≈ 4.78 µM) | MIC [1]: 50 µg/mL (≈ 239 µM) | MIC (Chlorella pyrenoidosa): 1 µg/mL (≈ 4.78 µM) | MIC (Aspergillus fumigatus): 50 µg/mL (≈ 239 µM) | MIC (Aspergillus oryzae): 50 µg/mL (≈ 239 µM) | MIC (Pencillium expansum): 50 µg/mL (≈ 239 µM) | MIC (Pencillium ochra-chloron): 50 µg/mL (≈ 239 µM) | MIC (Escherichia coli): > 50 µg/mL | MIC (Aspergillus niger): 5 µg/mL (≈ 23.9 µM)
